# Assay results published in patent US11059787B2, “Crystalline form of lenvatinib mesylate and methods thereof” (Shenzhen Bolan Pharmaceutical Co., LTD., priority 2019, dated 2021).
# Assays:
# [1] = Solubility in water with 1% polyvinyl alcohol; format: physicochemical; settings: solids added until not completely dissolved, in suspension for 5 hours, methanesulfonate
# Protocol: The solubility of Form XI was measured as compared to the previously reported Form A and Form C in U.S. Pat. No. 7,612,208. Form XI, Form A and Form C solids were gradually added into water with 1% polyvinyl alcohol until the solids could not dissolve completely and stay in suspension for 5 hours.
# [2] = Storage stability of the crystalline form for 15 days, compared by XRPD; format: physicochemical; settings: stored 15 days at 8° C., 25° C., 25° C./92.5% RH, 25° C./4500 LUX and 40° C./75% RH; XRPD comparison
# Protocol: The stability of Form XI was measured after being stored for 15 days under the following conditions: 8° C., 25° C., 25° C./92.5% RH, 25° C./4500 LUX and 40° C./75% RH.
# in vivo = settings: BALB/c, mouse, po
Solubility [1],Stability under storage conditions [2],AUC(0-inf) (in vivo),Cmax (in vivo),Tmax (in vivo),bioavailability (in vivo),half-life (in vivo),Compound
11.75 mg/mL,,,,,,,"COc1cc2nccc(Oc3ccc(NC(=O)NC4CC4)c(Cl)c3)c2cc1C(N)=O.CS(=O)(=O)O [Form A, 4-(3-chloro-4-(cyclopropylaminocarbonyl)aminophenoxy)-7-methoxy-6-quinolinecarboxamide methanesulfonate]"
26.65 mg/mL,stable,38900 ± 11100 ng·h/mL,11500 ± 2920 ng/mL,0.833 h,109%,1.95 ± 0.04 h,"COc1cc2nccc(Oc3ccc(NC(=O)NC4CC4)c(Cl)c3)c2cc1C(N)=O.CS(=O)(=O)O [Form XI, 4-(3-chloro-4-(cyclopropylaminocarbonyl)aminophenoxy)-7-methoxy-6-quinolinecarboxamide methanesulfonate]"
16.175 mg/mL,,,,,,,"COc1cc2nccc(Oc3ccc(NC(=O)NC4CC4)c(Cl)c3)c2cc1C(N)=O.CS(=O)(=O)O [Form C, 4-(3-chloro-4-(cyclopropylaminocarbonyl)aminophenoxy)-7-methoxy-6-quinolinecarboxamide methanesulfonate]"
